This note sets out measurements from ChEMBL document CHEMBL1127775, “Orally active prodrugs of quinoline-4-carboxylic acid angiotensin II receptor antagonists” (Bioorg Med Chem Lett, 1994).

In series [1] the test system is Rattus norvegicus. The series can be described thus: Oral activity determined using the salt-deplete spontaneously hypertensive rat (SHR) model, expressed as percent of maximum decrease in mean arterial pressure at a oral dose of 30 umol/kg for 0-6 hr. It counts as functional, Artery.
The species entered for a further series is Oryctolagus cuniculus. Nature of the series: Functional antagonism was measured by the ability of a single concentration of compound to block angiotensin II induced contractions in rabbit aortic smooth muscle strips. The note with it: Aorta.
Series [2] has as its system Rattus norvegicus. Nature of the series: Oral activity determined using the salt-deplete spontaneously hypertensive rat (SHR) model, expressed as percent of maximum decrease in mean arterial pressure at a oral dose of 30 umol/kg for 18-24 hr. It counts as functional, Artery.
In series [3] the test system is Rattus norvegicus. Nature of the series: Oral activity determined using the salt-deplete spontaneously hypertensive rat (SHR) model, expressed as percent of maximum decrease in mean arterial pressure at a oral dose of 30 umol/kg for 12-18 hr. It counts as functional, Artery.
Series [4] has as its system Rattus norvegicus. The series can be described thus: Oral activity determined using the salt-deplete spontaneously hypertensive rat (SHR) model, expressed as percent of maximum decrease in mean arterial pressure at a oral dose of 30 umol/kg for 6-12 hr. It counts as functional, Artery.
In series [5] the test system is Rattus norvegicus. Nature of the series: Oral activity determined using the salt-deplete spontaneously hypertensive rat (SHR) model, expressed as percent of maximum decrease in mean arterial pressure at a oral dose of 10 umol/kg for 12-18 hr. It counts as functional, Artery.
For series [6], the system named is Rattus norvegicus. Nature of the series: Oral activity determined using the salt-deplete spontaneously hypertensive rat (SHR) model, expressed as percent of maximum decrease in mean arterial pressure at a oral dose of 10 umol/kg for 18-24 hr. It counts as functional, Artery.
The test system of series [7] is Rattus norvegicus. Nature of the series: Oral activity determined using the salt-deplete spontaneously hypertensive rat (SHR) model, expressed as percent of maximum decrease in mean arterial pressure at a oral dose of 10 umol/kg for 0-6 hr. It counts as functional, Artery.
The test system of series [8] is Rattus norvegicus. The series can be described thus: Oral activity determined using the salt-deplete spontaneously hypertensive rat (SHR) model, expressed as percent of maximum decrease in mean arterial pressure at a oral dose of 10 umol/kg for 6-12 hr. It counts as functional, Artery.
Series [9] relates to Rattus norvegicus. The series can be described thus: Tested for fall in blood pressure on seventh day after dosing. It counts as functional.
Series [10] in a line: Oral bioavailability in rat. The note with it: in vivo. It counts as ADME, organism-based.

A word on the Kb: it is the affinity of an antagonist, worked out from how it opposes an agonist. A low value points to higher antagonist affinity. Regarding `O=C(O)c1c(Oc2ccc(-c3ccccc3-c3nn[nH]n3)cc2)c(C2CC2)nc2ccccc12`, the Decrease in the series on Rattus norvegicus [1] is 14%; with Rattus norvegicus [2], 23%; with Rattus norvegicus [3], 21%; with Rattus norvegicus [4], 14%. The antagonist dissociation constant (Kb) in the series listed under Oryctolagus cuniculus was 0.061 nM.
Consider `CCOC(=O)c1c(Oc2ccc(-c3ccccc3-c3nn[nH]n3)cc2)c(C2CC2)nc2ccccc12`, for which the Decrease in the series on Rattus norvegicus [1] came to 17%; with Rattus norvegicus [2] it was 26%; in the series on Rattus norvegicus [3] it was 25%; in the series on Rattus norvegicus [4] it was 19%.
`CCC(=O)OC(OC(=O)c1c(Oc2ccc(-c3ccccc3-c3nn[nH]n3)cc2)c(C2CC2)nc2ccccc12)C(C)C` (stereo not given): the Decrease is listed as 9% in the series on Rattus norvegicus [5], 19% with Rattus norvegicus [6], 7% in the series on Rattus norvegicus [7] and 5% with Rattus norvegicus [8].
The molecule `CCCCc1nc(Cl)c(CO)n1Cc1ccc(-c2ccccc2-c2nnn[nH]2)cc1` [LOSARTAN] came in with a Blood pressure in the series with Rattus norvegicus [9] of 20 mmHg.
One may read the bioavailability as the share of a dose that reaches the circulation, judged against a reference dose that is usually intravenous. Consider `CC(C)C(OC(=O)C(C)(C)C)n1nnc(-c2ccccc2-c2ccc(Oc3c(C4CC4)nc4ccccc4c3C(=O)O)cc2)n1` (stereo not given), for which the bioavailability in [10] turned out to be 39%. The Decrease in the series with Rattus norvegicus [5] was determined as 20%; with Rattus norvegicus [6], 19%; in the series on Rattus norvegicus [7] it was 17%; in the series on Rattus norvegicus [8], 17%.
Regarding `Cc1oc(=O)oc1COC(=O)c1c(Oc2ccc(-c3ccccc3-c3nn[nH]n3)cc2)c(C2CC2)nc2ccccc12`, the bioavailability in series [10] is 27%. The Decrease in the series with Rattus norvegicus [5] is 23%; with Rattus norvegicus [6], 24%; with Rattus norvegicus [7], 19%; with Rattus norvegicus [8], 19%. The molecule further registered a Blood pressure in the series with Rattus norvegicus [9] of 45 mmHg.
